How the values were obtained:
[1] = target: 1-phosphatidylinositol 3-phosphate 5-kinase (Homo sapiens) (UniProt Q9Y2I7); details: Compound concentration 1000.0 nM
[2] = target: Serine/threonine-protein kinase Nek11 (Homo sapiens) (UniProt Q8NG66); details: Compound concentration 1000.0 nM
[3] = target: Serine/threonine-protein kinase PAK 5 (Homo sapiens) (UniProt Q9P286); details: Compound concentration 1000.0 nM
[4] = target: Mitogen-activated protein kinase kinase kinase 2 (Homo sapiens) (UniProt Q9Y2U5); details: Compound concentration 1000.0 nM
[5] = test system: Epidermal growth factor receptor (Homo sapiens), P00533 [UNDEFINED MUTATION]; details: Compound concentration 1000.0 nM
[6] = target: Serine/threonine-protein kinase Sgk1 (Homo sapiens) (UniProt O00141); details: Compound concentration 1000.0 nM
[7] = target: Cyclin-dependent kinase-like 2 (Homo sapiens) (UniProt Q92772); details: Compound concentration 1000.0 nM
[8] = target: 5-hydroxytryptamine receptor 6 (Homo sapiens) (UniProt P50406); details: Compound concentration 10.0 uM
[9] = target: Activin receptor type-1B (Homo sapiens) (UniProt P36896); details: Compound concentration 1000.0 nM
[10] = target: Serine/threonine-protein kinase ULK1 (Homo sapiens) (UniProt O75385); details: Compound concentration 1000.0 nM
[11] = target: Serine/threonine-protein kinase/endoribonuclease IRE1 (Homo sapiens) (UniProt O75460); details: Compound concentration 1000.0 nM
[12] = target: 5-hydroxytryptamine receptor 5A (Homo sapiens) (UniProt P47898); details: Compound concentration 10.0 uM
[13] = test system: Tyrosine-protein kinase ABL1 (Homo sapiens), P00519 [Q252H]; details: Compound concentration 1000.0 nM
[14] = target: Receptor-interacting serine/threonine-protein kinase 4 (Homo sapiens) (UniProt P57078); details: Compound concentration 1000.0 nM
[15] = target: Rhodopsin kinase GRK7 (Homo sapiens) (UniProt Q8WTQ7); details: Compound concentration 1000.0 nM
Rattus norvegicus = species: Rattus norvegicus; details: Compound concentration 10.0 uM
[16] = target: Activated CDC42 kinase 1 (Homo sapiens) (UniProt Q07912); details: Compound concentration 1000.0 nM
[17] = target: Cyclin-dependent kinase 11A (Homo sapiens) (UniProt Q9UQ88); details: Compound concentration 1000.0 nM
[18] = target: D(2) dopamine receptor (Homo sapiens) (UniProt P14416); details: Compound concentration 10.0 uM
[19] = target: Atypical kinase COQ8A, mitochondrial (Homo sapiens) (UniProt Q8NI60); details: Compound concentration 1000.0 nM
[20] = test system: Epidermal growth factor receptor (Homo sapiens), P00533 [UNDEFINED MUTATION]; details: Compound concentration 1000.0 nM; remark: listed apart in the source
[21] = test system: Tyrosine-protein kinase ABL1 (Homo sapiens), P00519 [H396P]; details: Compound concentration 1000.0 nM
[22] = test system: Tyrosine-protein kinase ABL1 (Homo sapiens), P00519 [Y253F]; details: Compound concentration 1000.0 nM
[23] = target: Ribosomal protein S6 kinase alpha-4 (Homo sapiens) (UniProt O75676); details: Compound concentration 1000.0 nM
[24] = target: Serine/threonine-protein kinase pim-2 (Homo sapiens) (UniProt Q9P1W9); details: Compound concentration 1000.0 nM
[25] = target: Bone morphogenetic protein receptor type-1B (Homo sapiens) (UniProt O00238); details: Compound concentration 1000.0 nM
[26] = test system: Receptor-type tyrosine-protein kinase FLT3 (Homo sapiens), P36888 [UNDEFINED MUTATION]; details: Compound concentration 1000.0 nM
[27] = target: Serine/threonine-protein kinase PAK 2 (Homo sapiens) (UniProt Q13177); details: Compound concentration 1000.0 nM
[28] = target: Angiopoietin-1 receptor (Homo sapiens) (UniProt Q02763); details: Compound concentration 1000.0 nM
[29] = test system: Tyrosine-protein kinase ABL1 (Homo sapiens), P00519 [F317L]; details: Compound concentration 1000.0 nM
[30] = target: Mitogen-activated protein kinase 7 (Homo sapiens) (UniProt Q13164); details: Compound concentration 1000.0 nM
[31] = test system: Tyrosine-protein kinase ABL1 (Homo sapiens), P00519 [T315I]; details: Compound concentration 1000.0 nM
[32] = target: Casein kinase I isoform epsilon (Homo sapiens) (UniProt P49674); details: Compound concentration 1000.0 nM
[33] = target: Mitogen-activated protein kinase 3 (Homo sapiens) (UniProt P27361); details: Compound concentration 1000.0 nM
[34] = target: Serine/threonine-protein kinase Chk1 (Homo sapiens) (UniProt O14757); details: Compound concentration 1000.0 nM
[35] = target: Epithelial discoidin domain-containing receptor 1 (Homo sapiens) (UniProt Q08345); details: Compound concentration 1000.0 nM
[36] = target: Serine/threonine-protein kinase BRSK2 (Homo sapiens) (UniProt Q8IWQ3); details: Compound concentration 1000.0 nM
[37] = target: Mitogen-activated protein kinase kinase kinase 9 (Homo sapiens) (UniProt P80192); details: Compound concentration 1000.0 nM
[38] = test system: Proto-oncogene tyrosine-protein kinase receptor Ret (Homo sapiens), P07949 [M918T]; details: Compound concentration 1000.0 nM
[39] = target: Phosphatidylinositol 4,5-bisphosphate 3-kinase catalytic subunit alpha isoform (Homo sapiens) (UniProt P42336); details: Compound concentration 1000.0 nM
[40] = target: Serine/threonine-protein kinase Nek9 (Homo sapiens) (UniProt Q8TD19); details: Compound concentration 1000.0 nM
[41] = target: Mitogen-activated protein kinase kinase kinase 1 (Homo sapiens) (UniProt Q13233); details: Compound concentration 1000.0 nM
[42] = target: Serine/threonine-protein kinase tousled-like 1 (Homo sapiens) (UniProt Q9UKI8); details: Compound concentration 1000.0 nM
[43] = target: Serine/threonine-protein kinase PAK 3 (Homo sapiens) (UniProt O75914); details: Compound concentration 1000.0 nM
[44] = target: 5-hydroxytryptamine receptor 2B (Homo sapiens) (UniProt P41595); details: Compound concentration 10.0 uM

Chain of Epidermal growth factor receptor (Homo sapiens), P00533 [UNDEFINED MUTATION] (P00533 whole entry, looked up, stated change not applied): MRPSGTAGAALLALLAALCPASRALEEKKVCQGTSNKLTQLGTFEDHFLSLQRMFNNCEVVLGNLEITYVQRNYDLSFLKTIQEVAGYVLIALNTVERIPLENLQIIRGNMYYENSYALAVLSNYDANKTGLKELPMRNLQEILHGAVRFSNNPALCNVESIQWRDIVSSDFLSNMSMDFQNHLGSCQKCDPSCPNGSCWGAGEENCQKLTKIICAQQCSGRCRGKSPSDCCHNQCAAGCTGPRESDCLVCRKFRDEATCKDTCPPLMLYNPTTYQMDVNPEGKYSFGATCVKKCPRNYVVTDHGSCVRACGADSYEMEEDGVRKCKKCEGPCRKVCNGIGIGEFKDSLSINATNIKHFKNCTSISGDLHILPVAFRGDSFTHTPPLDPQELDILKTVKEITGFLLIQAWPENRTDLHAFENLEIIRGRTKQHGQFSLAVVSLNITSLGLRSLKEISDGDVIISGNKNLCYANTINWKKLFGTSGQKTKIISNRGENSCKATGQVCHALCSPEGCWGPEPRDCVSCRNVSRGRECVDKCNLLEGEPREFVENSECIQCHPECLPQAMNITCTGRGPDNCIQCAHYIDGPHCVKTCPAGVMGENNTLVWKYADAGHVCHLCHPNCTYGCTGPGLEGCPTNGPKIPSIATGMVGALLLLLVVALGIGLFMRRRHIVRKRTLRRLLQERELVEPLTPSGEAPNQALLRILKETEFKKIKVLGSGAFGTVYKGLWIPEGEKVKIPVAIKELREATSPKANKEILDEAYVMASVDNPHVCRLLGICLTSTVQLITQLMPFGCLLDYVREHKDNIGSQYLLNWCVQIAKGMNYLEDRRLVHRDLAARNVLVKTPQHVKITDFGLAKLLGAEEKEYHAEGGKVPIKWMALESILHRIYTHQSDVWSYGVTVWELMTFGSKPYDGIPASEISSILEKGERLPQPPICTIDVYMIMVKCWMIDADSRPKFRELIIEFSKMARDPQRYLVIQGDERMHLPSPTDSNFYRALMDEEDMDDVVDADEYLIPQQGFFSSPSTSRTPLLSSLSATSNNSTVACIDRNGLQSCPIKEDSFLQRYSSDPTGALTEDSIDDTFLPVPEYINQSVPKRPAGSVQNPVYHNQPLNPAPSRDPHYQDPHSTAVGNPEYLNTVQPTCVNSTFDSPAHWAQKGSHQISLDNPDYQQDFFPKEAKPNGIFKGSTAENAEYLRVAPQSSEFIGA
Chain of Casein kinase I isoform epsilon (Homo sapiens) (P49674 whole entry, looked up, canonical isoform): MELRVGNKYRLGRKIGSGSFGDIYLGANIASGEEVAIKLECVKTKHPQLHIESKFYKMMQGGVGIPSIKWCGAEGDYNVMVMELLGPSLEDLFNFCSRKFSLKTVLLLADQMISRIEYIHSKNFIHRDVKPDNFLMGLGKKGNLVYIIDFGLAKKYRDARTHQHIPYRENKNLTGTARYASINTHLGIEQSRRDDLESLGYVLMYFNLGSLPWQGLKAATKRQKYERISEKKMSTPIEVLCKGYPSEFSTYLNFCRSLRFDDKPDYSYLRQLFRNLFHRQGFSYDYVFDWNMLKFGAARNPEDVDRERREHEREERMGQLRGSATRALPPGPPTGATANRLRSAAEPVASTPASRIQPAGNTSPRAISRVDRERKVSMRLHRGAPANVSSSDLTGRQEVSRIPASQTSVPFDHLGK
Chain of Serine/threonine-protein kinase Nek9 (Homo sapiens) (Q8TD19 whole entry): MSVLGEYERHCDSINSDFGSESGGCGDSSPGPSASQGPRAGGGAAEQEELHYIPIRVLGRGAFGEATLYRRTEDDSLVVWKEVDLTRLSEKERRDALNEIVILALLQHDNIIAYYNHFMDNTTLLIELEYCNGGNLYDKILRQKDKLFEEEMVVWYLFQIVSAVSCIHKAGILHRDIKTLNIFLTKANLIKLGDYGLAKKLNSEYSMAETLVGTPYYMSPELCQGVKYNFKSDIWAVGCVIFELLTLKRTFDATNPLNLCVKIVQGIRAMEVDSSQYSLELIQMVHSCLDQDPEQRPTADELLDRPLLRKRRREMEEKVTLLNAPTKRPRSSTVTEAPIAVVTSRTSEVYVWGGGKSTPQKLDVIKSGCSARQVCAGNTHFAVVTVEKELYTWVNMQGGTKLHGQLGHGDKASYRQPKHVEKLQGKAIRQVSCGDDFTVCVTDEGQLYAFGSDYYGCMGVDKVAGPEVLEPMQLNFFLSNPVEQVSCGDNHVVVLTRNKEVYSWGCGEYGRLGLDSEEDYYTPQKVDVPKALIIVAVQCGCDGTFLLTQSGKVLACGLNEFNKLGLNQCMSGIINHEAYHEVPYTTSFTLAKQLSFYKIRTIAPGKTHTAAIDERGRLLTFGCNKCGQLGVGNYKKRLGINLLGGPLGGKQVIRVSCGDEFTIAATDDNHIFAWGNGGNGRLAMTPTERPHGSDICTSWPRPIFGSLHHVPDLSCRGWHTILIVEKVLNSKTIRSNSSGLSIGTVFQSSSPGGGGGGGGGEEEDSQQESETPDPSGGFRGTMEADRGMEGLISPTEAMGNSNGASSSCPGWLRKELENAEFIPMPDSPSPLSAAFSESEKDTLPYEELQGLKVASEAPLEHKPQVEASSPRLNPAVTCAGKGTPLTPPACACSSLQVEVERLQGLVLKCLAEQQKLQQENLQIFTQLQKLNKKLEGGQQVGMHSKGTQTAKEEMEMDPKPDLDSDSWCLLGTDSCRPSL
Chain of Serine/threonine-protein kinase PAK 3 (Homo sapiens) (O75914 whole entry, looked up): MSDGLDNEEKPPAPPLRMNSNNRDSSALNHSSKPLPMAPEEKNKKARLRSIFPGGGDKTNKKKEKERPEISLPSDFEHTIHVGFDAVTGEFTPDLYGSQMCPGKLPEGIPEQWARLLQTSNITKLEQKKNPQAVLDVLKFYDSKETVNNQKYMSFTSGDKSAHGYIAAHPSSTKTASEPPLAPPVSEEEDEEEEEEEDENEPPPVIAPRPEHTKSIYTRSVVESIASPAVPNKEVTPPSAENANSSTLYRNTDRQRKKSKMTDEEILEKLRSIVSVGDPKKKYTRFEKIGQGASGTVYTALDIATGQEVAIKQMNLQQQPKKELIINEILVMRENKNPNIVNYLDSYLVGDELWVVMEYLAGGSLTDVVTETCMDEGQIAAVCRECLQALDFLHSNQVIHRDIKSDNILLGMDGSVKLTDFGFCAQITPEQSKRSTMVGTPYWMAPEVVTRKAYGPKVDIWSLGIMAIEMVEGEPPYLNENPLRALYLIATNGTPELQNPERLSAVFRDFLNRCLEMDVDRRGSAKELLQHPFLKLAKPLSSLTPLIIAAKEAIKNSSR
Chain of Serine/threonine-protein kinase PAK 5 (Homo sapiens) (Q9P286 whole entry, looked up): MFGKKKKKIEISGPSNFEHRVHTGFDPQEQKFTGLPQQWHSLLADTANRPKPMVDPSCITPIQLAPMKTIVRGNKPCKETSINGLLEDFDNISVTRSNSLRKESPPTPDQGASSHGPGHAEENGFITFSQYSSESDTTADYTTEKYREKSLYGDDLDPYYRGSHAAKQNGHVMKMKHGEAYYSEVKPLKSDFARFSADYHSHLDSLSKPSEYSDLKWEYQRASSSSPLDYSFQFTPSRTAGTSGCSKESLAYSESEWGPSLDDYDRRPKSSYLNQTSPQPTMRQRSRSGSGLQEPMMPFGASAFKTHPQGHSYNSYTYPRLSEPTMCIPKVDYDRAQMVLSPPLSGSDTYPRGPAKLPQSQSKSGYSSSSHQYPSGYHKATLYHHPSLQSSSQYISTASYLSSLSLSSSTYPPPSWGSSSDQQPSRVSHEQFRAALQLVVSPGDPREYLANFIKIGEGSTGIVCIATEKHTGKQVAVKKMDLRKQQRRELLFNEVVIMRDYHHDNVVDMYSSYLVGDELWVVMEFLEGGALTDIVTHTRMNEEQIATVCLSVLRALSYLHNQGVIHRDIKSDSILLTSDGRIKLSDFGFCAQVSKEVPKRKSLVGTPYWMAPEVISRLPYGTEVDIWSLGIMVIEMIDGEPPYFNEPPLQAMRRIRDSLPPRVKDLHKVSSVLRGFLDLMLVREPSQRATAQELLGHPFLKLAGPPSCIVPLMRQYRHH
Chain of Cyclin-dependent kinase 11A (Homo sapiens) (Q9UQ88 whole entry): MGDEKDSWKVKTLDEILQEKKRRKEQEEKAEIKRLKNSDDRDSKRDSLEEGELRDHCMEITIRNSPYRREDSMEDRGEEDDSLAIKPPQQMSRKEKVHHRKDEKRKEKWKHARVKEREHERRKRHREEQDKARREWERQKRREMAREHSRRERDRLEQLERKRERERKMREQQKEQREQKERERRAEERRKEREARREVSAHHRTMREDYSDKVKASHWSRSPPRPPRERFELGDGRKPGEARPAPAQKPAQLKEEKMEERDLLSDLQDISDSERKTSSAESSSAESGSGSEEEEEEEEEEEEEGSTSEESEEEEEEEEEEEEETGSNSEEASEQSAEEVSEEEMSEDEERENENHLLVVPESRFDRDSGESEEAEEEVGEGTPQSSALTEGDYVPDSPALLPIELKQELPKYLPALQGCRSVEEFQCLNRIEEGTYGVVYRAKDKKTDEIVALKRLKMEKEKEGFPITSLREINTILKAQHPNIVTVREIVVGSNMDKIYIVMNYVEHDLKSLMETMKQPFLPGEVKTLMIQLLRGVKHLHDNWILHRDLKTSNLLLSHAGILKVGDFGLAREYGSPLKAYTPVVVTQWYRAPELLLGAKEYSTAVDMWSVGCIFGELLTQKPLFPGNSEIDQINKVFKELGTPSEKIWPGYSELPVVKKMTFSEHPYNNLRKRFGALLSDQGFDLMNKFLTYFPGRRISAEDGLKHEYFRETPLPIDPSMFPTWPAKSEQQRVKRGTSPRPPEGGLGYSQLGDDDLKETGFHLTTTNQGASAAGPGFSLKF
Chain of Serine/threonine-protein kinase pim-2 (Homo sapiens) (Q9P1W9 whole entry, looked up): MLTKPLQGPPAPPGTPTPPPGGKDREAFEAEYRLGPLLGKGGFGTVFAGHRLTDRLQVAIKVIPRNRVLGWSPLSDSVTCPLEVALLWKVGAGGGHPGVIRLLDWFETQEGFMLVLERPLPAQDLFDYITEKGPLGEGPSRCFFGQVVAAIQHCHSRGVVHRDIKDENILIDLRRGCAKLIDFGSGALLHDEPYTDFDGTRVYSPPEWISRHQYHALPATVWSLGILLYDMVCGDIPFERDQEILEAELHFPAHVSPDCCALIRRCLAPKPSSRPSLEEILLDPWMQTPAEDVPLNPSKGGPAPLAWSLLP

O=C(O)[C@@H]1[C@@H](Cn2nnc3ccccc3c2=O)CC[C@H]1C(=O)c1ccc(OCCC2CCOCC2)cc1 [BAY-694]
inactive: residual activity [1] 87% | residual activity [2] 100% | residual activity [3] 96% | residual activity [4] 100% | residual activity [5] 95% | residual activity [6] 74% | residual activity [7] 73% | inhibition [8] 26.9% | residual activity [9] 100% | residual activity [10] 100% | residual activity [11] 88% | inhibition [12] 1.33% | residual activity [13] 92% | residual activity [14] 81% | residual activity [15] 100% | inhibition (Rattus norvegicus) 13.4% | residual activity [16] 100% | residual activity [17] 91% | inhibition [18] -5.06% | residual activity [19] 88% | residual activity [20] 58% | residual activity [21] 84% | residual activity [22] 100% | residual activity [23] 85% | residual activity [24] 94% | residual activity [25] 78% | residual activity [26] 100% | residual activity [27] 82% | residual activity [28] 100% | residual activity [29] 86% | residual activity [30] 100% | residual activity [31] 100% | residual activity [32] 90% | residual activity [33] 100% | residual activity [34] 100% | residual activity [35] 100% | residual activity [36] 100% | residual activity [37] 100% | residual activity [38] 100% | residual activity [39] 100% | residual activity [40] 100% | residual activity [41] 100% | residual activity [42] 100% | residual activity [43] 99% | inhibition [44] 36.2%

O=C(O)[C@H]1[C@H](Cn2nnc3ccccc3c2=O)CC[C@@H]1C(=O)c1ccc(OCCC2CCOCC2)cc1 [BAY-7598]
inactive: residual activity [1] 72% | residual activity [2] 100% | residual activity [3] 98% | residual activity [4] 100% | residual activity [5] 80% | residual activity [6] 100% | residual activity [7] 97% | inhibition [8] 16.6% | residual activity [9] 74% | residual activity [10] 95% | residual activity [11] 82% | inhibition [12] 6.91% | residual activity [13] 83% | residual activity [14] 80% | residual activity [15] 100% | inhibition (Rattus norvegicus) 9.67% | residual activity [16] 100% | residual activity [17] 92% | inhibition [18] 30.3% | residual activity [19] 100% | residual activity [20] 65% | residual activity [21] 100% | residual activity [22] 100% | residual activity [23] 97% | residual activity [24] 96% | residual activity [25] 95% | residual activity [26] 83% | residual activity [27] 69% | residual activity [28] 86% | residual activity [29] 75% | residual activity [30] 100% | residual activity [31] 79% | residual activity [32] 100% | residual activity [33] 94% | residual activity [34] 100% | residual activity [35] 100% | residual activity [36] 100% | residual activity [37] 81% | residual activity [38] 76% | residual activity [39] 100% | residual activity [40] 91% | residual activity [41] 100% | residual activity [42] 96% | residual activity [43] 86% | inhibition [44] 22.8%
